Assay type in all cases: cell-based
One experiment deals with T1, D(4) dopamine receptor (Homo sapiens, UniProt P21917).
T1 sequence (P21917 whole entry): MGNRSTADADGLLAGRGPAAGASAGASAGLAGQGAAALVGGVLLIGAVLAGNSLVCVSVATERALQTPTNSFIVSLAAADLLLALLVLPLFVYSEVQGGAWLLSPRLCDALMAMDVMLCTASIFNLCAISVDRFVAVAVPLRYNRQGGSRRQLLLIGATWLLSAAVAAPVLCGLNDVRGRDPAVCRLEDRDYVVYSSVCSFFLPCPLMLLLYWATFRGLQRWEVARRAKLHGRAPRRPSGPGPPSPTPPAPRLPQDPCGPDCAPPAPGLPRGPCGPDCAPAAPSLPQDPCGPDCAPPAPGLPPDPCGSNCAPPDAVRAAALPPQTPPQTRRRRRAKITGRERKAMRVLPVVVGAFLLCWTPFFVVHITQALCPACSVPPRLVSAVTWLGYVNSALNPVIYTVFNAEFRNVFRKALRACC
The experiment can be described thus: Binding affinity against human cloned D4 receptor transfected in CHO-K1 cells by [3H]- spiperone displacement.

In another experiment the target is D(3) dopamine receptor (Homo sapiens, UniProt P35462). The experiment can be described thus: Binding affinity against cloned human D3 receptor transfected in CHO-K1 cells using [3H]- spiperone as radioligand.
Sequence of D(3) dopamine receptor (P35462 whole entry): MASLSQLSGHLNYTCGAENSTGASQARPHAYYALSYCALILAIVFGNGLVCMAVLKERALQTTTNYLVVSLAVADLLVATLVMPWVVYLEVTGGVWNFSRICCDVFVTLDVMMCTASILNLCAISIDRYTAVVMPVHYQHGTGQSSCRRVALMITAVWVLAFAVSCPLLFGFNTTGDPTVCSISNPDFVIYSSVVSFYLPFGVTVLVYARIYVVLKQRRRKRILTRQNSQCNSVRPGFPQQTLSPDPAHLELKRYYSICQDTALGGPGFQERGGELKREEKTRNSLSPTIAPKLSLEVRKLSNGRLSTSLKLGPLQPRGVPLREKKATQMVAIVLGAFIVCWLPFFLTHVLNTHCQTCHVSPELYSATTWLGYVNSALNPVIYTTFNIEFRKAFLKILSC
Another experiment addresses D(2) dopamine receptor (Homo sapiens, UniProt P14416). In words: Binding affinity against cloned human D2 receptor transfected in CHO-K1 cells using [3H]- spiperone as radioligand.

The structures appear in SMILES notation.

Sequence of D(2) dopamine receptor (P14416 whole entry): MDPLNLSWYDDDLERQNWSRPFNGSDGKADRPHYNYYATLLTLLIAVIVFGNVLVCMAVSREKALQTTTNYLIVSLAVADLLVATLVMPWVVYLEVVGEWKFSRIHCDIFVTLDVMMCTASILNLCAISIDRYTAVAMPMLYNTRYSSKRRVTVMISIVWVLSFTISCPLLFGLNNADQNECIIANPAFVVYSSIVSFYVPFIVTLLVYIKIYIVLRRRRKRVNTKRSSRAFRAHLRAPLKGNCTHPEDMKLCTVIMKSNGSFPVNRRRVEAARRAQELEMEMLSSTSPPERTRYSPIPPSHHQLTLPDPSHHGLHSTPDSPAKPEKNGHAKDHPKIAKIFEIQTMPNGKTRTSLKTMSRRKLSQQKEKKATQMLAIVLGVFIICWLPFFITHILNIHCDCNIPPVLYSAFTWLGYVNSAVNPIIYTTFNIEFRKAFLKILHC

Regarding `O[C@H](COc1ccccc1)CN1CCC(Oc2ccccc2)CC1`, the figures for the Ki on D(4) dopamine receptor, on D(3) dopamine receptor and at D(2) dopamine receptor were 11.6 nM, 457 nM and 709 nM, respectively.
Take `COC(COc1cccc2ccccc12)CN1CCC(Cc2ccccc2)CC1` (stereo not given): affinity on D(4) dopamine receptor was put at a Ki of 45 nM. This lies in the double-digit nanomolar range.
Regarding `Cc1ccc(CC2CCN(CC(O)COc3cccc4ccccc34)CC2)cc1` (stereo not given), the affinity at D(4) dopamine receptor corresponds to a Ki of 52 nM.
On to `OC(COc1ccccc1)CN1CCC(Cc2ccccc2)CC1` (stereo not given), for which the affinity at D(4) dopamine receptor corresponds to a Ki of 34 nM.
Still for that read-out and setting: the value for `CC(COc1cccc2ccccc12)CN1CCC(Cc2ccccc2)CC1` (stereo not given) was 72 nM; that for `OC(COc1cccc2ccccc12)CN1CCC(Cc2ccc(F)cc2)CC1` (stereo not given) was 32 nM.
On to `OC(COc1cccc2ccccc12)CN1CCC(Oc2ccccc2)CC1` (stereo not given), for which the Ki (usually the dissociation constant of the complex between target and ligand, obtained from inhibition or displacement) at D(4) dopamine receptor was determined as 18 nM; on D(2) dopamine receptor, 2340 nM.
Regarding `OC(COc1cccc2ccccc12)CN1CCC(Cc2ccc(Cl)cc2)CC1` (stereo not given), the affinity on D(4) dopamine receptor corresponds to a Ki of 45 nM.
On to `OC(COc1cccc2ccccc12)CN1CCC(Sc2ccccc2)CC1` (stereo not given), for which the Ki on D(4) dopamine receptor came to 32 nM. This Ki and that of the compound before are within 1.5-fold of each other.
Regarding `O=[N+]([O-])c1ccc(OCC(O)CN2CCC(Cc3ccccc3)CC2)cc1` (stereo not given), at D(4) dopamine receptor, the affinity, expressed as Ki, was 59 nM.
The compound `COc1ccc(OCC(O)CN2CCC(Cc3ccccc3)CC2)cc1` (stereo not given) came in with a Ki on D(4) dopamine receptor of 123 nM.
On D(4) dopamine receptor, `OC(COc1ccc(Cl)cc1)CN1CCC(Cc2ccccc2)CC1` (stereo not given) had a Ki of 18 nM.
For the compound `COc1ccc(CC2CCN(CC(O)COc3cccc4ccccc34)CC2)cc1` (stereo not given), at D(4) dopamine receptor, the inhibitory constant (Ki) is 74 nM.
Turning to `O[C@@H](COc1ccccc1)CN1CCC(Oc2ccccc2)CC1`, the values for the Ki at D(4) dopamine receptor, on D(3) dopamine receptor and on D(2) dopamine receptor were 2 nM, 220 nM and 244 nM, respectively.
With `c1ccc(CC2CCN(CCCOc3cccc4ccccc34)CC2)cc1`, the Ki on D(4) dopamine receptor is 50 nM.
As for `OC(COc1cccc2ccccc12)CN1CCC(Cc2ccccc2)CC1` (stereo not given), the Ki stood at 26 nM at D(4) dopamine receptor and 1440 nM at D(2) dopamine receptor.
With `OC(COc1ccccc1)CN1CCC(Oc2ccccc2)CC1` (racemic), the inhibition constant (Ki) at D(4) dopamine receptor came to 3.6 nM; on D(3) dopamine receptor it was 537 nM; at D(2) dopamine receptor, 911 nM.
